From paper PMC12462901 (Journal of the American Chemical Society, 2025)
Like-named read-outs stand apart in the source and are kept apart here.

Tests used:
kinetic solubility = type: physicochemical; settings: compared to atuveciclib
[1] = test system: HeLa human cervical carcinoma cells (CCL-2); assay: cellular potency in HeLa cells; type: cell-based; settings: read-out: IC50 value (cellular potency)
logD = type: physicochemical; settings: relative to parent atuveciclib
[2] = test system: Madin-Darby canine kidney (MDCK) cells; assay: permeability in MDCK cells; type: in vitro ADME; settings: compared to the parent compound

Q: For `COc1cc(F)ccc1-c1ncnc(Nc2cccc(C[S@@](C)(=O)=NC3CCC3)c2)n1` [Compound 57], which kinetic solubility (kinetic solubility) is on record?
A: notable improvement compared to atuveciclib

Q: And the IC50 ([1]; HeLa human cervical carcinoma cells (CCL-2))?
A: 700 nM

Q: What about the logD (logD) of the same molecule?
A: increase in logD

Q: What about the permeability [2] of the same molecule?
A: enhanced permeability compared to the parent compound

Q: Which IC50 ([1]; Homo sapiens, HeLa) does the source give for `COc1cc(F)ccc1-c1ncnc(Nc2cccc(C[S@](C)(=N)=O)c2)n1` [atuveciclib, reference compound] here?
A: 300 nM
